IC50 data for 23 molecules are collected here from patent US20240109917A1 (ACTELION PHARMACEUTICALS LTD, priority 2020, published 2024).

In experiment [1] the target is His6-TEV-PDGFRβ (557-1016) (Homo sapiens (Human), UniProt P09619). Put plainly: PDGFRβ HTRF Assay. The format is biochemical. The following applies: read-out: PDGFR HTRF IC50. In a few lines: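 Human PDGFRβ (557-1016) pre-incubated with compound for 30 min at RT in pH 7.5 HEPES/MgCl2/EGTA/Brij-35/DTT buffer. Reaction started with ATP and TK-biotin peptide, run 3 h at RT, then quenched with EDTA-containing Eu-cryptate antibody/streptavidin-XL665. HTRF 665/620 nm ratio read after 60 min; percent inhibition relative to DMSO and 10 μM imatinib controls.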
Chain of His6-TEV-PDGFRβ (557-1016) (P09619 557-1016): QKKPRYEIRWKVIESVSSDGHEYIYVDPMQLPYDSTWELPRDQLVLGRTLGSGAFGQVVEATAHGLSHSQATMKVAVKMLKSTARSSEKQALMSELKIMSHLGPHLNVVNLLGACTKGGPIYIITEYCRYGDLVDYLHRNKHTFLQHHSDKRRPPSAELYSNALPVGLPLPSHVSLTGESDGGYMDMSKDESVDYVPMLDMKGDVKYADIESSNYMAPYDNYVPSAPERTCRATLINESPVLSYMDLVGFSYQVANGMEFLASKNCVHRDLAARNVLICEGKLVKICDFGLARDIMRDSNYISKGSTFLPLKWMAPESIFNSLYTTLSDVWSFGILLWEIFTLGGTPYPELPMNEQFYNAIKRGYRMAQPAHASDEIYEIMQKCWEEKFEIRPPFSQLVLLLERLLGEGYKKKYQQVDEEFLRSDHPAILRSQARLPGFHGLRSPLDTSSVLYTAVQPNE

The target of experiment [2] is PDGFRβ (Rattus norvegicus (Rat), UniProt Q05030). Put plainly: PDGFRβ Cellular Assay (PDGFRb P-Y751 HTRF in A10 cells stimulated with PDGF-BB). Type of experiment: cell-based. In a few lines:
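Rat A10 cells, plated overnight, were treated with compound for 3 hours, then stimulated with PDGF-BB (working stock 100 ng/mL in 10% FBS medium). After lysis, PDGFRβ P-Y751 was detected by HTRF.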

Molecules are shown by their SMILES. Like-named read-outs stand apart in the source and are kept apart here.

Chain of PDGFRβ (Q05030 32-1097): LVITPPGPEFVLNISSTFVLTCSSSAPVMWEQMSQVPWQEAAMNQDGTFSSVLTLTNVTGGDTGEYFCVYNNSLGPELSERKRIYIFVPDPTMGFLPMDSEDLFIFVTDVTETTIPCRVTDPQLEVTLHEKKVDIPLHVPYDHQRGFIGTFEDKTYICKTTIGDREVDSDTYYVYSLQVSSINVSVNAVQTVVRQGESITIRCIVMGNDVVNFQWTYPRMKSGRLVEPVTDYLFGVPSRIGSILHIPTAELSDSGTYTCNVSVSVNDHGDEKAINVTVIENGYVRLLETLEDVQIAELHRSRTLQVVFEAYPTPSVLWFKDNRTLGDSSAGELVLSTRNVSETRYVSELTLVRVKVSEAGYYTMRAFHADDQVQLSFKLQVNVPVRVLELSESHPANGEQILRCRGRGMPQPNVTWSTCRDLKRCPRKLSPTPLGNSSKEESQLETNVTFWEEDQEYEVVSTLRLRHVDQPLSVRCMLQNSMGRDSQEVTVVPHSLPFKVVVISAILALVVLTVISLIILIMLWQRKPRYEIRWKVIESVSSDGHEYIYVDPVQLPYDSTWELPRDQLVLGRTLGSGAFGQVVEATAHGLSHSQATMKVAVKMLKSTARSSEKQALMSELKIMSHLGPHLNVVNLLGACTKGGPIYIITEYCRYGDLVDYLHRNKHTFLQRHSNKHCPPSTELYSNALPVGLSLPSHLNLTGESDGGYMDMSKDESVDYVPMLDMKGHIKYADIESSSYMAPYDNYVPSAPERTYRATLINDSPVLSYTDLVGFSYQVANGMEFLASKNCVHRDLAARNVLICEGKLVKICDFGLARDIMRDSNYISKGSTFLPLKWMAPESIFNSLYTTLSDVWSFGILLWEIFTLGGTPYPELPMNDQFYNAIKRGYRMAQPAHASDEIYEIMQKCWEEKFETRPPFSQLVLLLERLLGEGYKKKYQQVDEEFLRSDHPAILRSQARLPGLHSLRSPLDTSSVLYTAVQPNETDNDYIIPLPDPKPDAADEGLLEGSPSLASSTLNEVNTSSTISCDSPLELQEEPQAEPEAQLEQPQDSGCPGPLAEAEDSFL

With `Cc1ncc(NC(=O)CN2CC(C)(C)C2)cc1NC(=O)c1cnn2cc(-c3ccnc(N4CCOCC4)c3)sc12` [Example 284, N-(5-(2-(3,3-dimethylazetidin-1-yl)acetamido)-2-methylpyridin-3-yl)-2-(2-morpholinopyridin-4-yl)pyrazolo[5,1-b]thiazole-7-carboxamide], the IC50 in experiment [1] came to 0.2 nM; in experiment [2] (read-out: PDGFR Cellular IC50), 2.8 nM.
The corresponding values for `COCCn1cc(-c2cn3ncc(C(=O)Nc4cc(NC(=O)CN5CCC[C@@H]5C)cnc4C)c3s2)cn1` [Example 325, (S)-2-(1-(2-methoxyethyl)-1H-pyrazol-4-yl)-N-(2-methyl-5-(2-(2-methylpyrrolidin-1-yl)acetamido)pyridin-3-yl)pyrazolo[5,1-b]thiazole-7-carboxamide] are 0.8 nM and 10.7 nM.
As to `Cc1ncc(NC(=O)CN2CCc3ccncc3C2)cc1NC(=O)c1cnn2cc(-c3cnn(C)c3)sc12` [Example 23, N-(5-(2-(3,4-dihydro-2,7-naphthyridin-2 (1H)-yl)acetamido)-2-methylpyridin-3-yl)-2-(1-methyl-1H-pyrazol-4-yl)pyrazolo[5,1-b]thiazole-7-carboxamide], the IC50 in experiment [1] was found to be 0.7 nM; in experiment [2] (PDGFR Cellular IC50) it was 67.7 nM.
With `CNC(=O)Cn1cc(-c2cn3ncc(C(=O)Nc4cc(NC(=O)CN5CC(C)(C)C5)cnc4C)c3s2)cn1` [Example 279, N-(5-(2-(3,3-dimethylazetidin-1-yl)acetamido)-2-methylpyridin-3-yl)-2-(1-(2-(methylamino)-2-oxoethyl)-1H-pyrazol-4-yl)pyrazolo[5,1-b]thiazole-7-carboxamide], the values for the IC50 in experiment [1] and in experiment [2] (read-out: PDGFR Cellular IC50) were 0.4 nM and 134 nM, respectively.
On the same counts, the results for `Cc1ncc(NC(=O)CN2CC(C)(C)C2)cc1NC(=O)c1cnn2cc(-c3cnn(CC(C)O)c3)sc12` (stereo not shown) [Example 281, N-(5-(2-(3,3-dimethylazetidin-1-yl)acetamido)-2-methylpyridin-3-yl)-2-(1-(2-hydroxypropyl)-1H-pyrazol-4-yl)pyrazolo[5,1-b]thiazole-7-carboxamide] are 0.4 nM and 10.9 nM.
The corresponding values for `COc1ncccc1-c1cn2ncc(C(=O)Nc3cc(C(=O)NCCN4CCC[C@@H]4C)cnc3C)c2s1` [Example 301, (S)-2-(2-methoxypyridin-3-yl)-N-(2-methyl-5-((2-(2-methylpyrrolidin-1-yl)ethyl)carbamoyl)pyridin-3-yl)pyrazolo[5,1-b]thiazole-7-carboxamide] are 0.2 nM and 4.3 nM.
The corresponding values for `Cc1ncc(NC(=O)CN2CCCC2(C)C)cc1NC(=O)c1cnn2cc(-n3ncc4cccnc43)sc12` [Example 259, N-(5-(2-(2,2-dimethylpyrrolidin-1-yl)acetamido)-2-methylpyridin-3-yl)-2-(1H-pyrazolo[3,4-b]pyridin-1-yl)pyrazolo[5,1-b]thiazole-7-carboxamide] are 0.4 nM and 3.9 nM.
`COc1ncccc1-c1cn2ncc(C(=O)Nc3cc(NC(=O)CN4CCO[C@H](C)C4)cnc3C)c2s1` [Example 318, (R)-2-(2-methoxypyridin-3-yl)-N-(2-methyl-5-(2-(2-methylmorpholino)acetamido)pyridin-3-yl)pyrazolo[5,1-b]thiazole-7-carboxamide]: the IC50 in experiment [1] was 0.3 nM; in experiment [2] (PDGFR Cellular IC50), 3.8 nM.
As for `CC(=O)Nc1cncc(-c2cn3ncc(C(=O)Nc4cc(NC(=O)CN5CC(C)(C)C5)cnc4C)c3s2)c1` [Example 277, 2-(5-acetamidopyridin-3-yl)-N-(5-(2-(3,3-dimethylazetidin-1-yl)acetamido)-2-methylpyridin-3-yl)pyrazolo[5,1-b]thiazole-7-carboxamide], the IC50 in experiment [1] was 0.4 nM; in experiment [2] (read-out: PDGFR Cellular IC50), 142 nM.
The corresponding values for `Cc1ncc(NC(=O)CN2CC(C)(C)C2)cc1NC(=O)c1cnn2cc(-c3cnn(C4COC4)c3)sc12` [Example 264, N-(5-(2-(3,3-dimethylazetidin-1-yl)acetamido)-2-methylpyridin-3-yl)-2-(1-(oxetan-3-yl)-1H-pyrazol-4-yl)pyrazolo[5,1-b]thiazole-7-carboxamide] are 0.4 nM and 7.6 nM.
On the same counts, the results for `Cc1ncc(NC(=O)CN2CCC3(CCCO3)C2)cc1NC(=O)c1cnn2cc(-c3cnn(C)c3)sc12` (stereo not shown) [Example 21, N-(5-(2-(1-oxa-7-azaspiro[4.4]nonan-7-yl)acetamido)-2-methylpyridin-3-yl)-2-(1-methyl-1H-pyrazol-4-yl)pyrazolo[5,1-b]thiazole-7-carboxamide] are 0.7 nM and 10.9 nM.
For the molecule `COc1ncccc1-c1cn2ncc(C(=O)Nc3cc(NC(=O)C[C@H]4CCCN4C(C)C)cnc3C)c2s1` [Example 309, (R)—N-(5-(2-(1-isopropylpyrrolidin-2-yl)acetamido)-2-methylpyridin-3-yl)-2-(2-methoxypyridin-3-yl)pyrazolo[5,1-b]thiazole-7-carboxamide], the IC50 in experiment [1] amounted to 0.2 nM; in experiment [2] (read-out: PDGFR Cellular IC50), 4.2 nM.
Consider `Cc1ncc(NC(=O)CN2CC(C)(C)C2)cc1NC(=O)c1cnn2cc(-c3cnn(CS(C)(=O)=O)c3)sc12` [Example 265, N-(5-(2-(3,3-dimethylazetidin-1-yl)acetamido)-2-methylpyridin-3-yl)-2-(1-((methylsulfonyl)methyl)-1H-pyrazol-4-yl)pyrazolo[5,1-b]thiazole-7-carboxamide], for which the results for the IC50 in experiment [1] and in experiment [2] (read-out: PDGFR Cellular IC50) were 0.5 nM and 114 nM, respectively.
On the same counts, the results for `COc1ncccc1-c1cn2ncc(C(=O)Nc3cc(NC(=O)C[C@@H]4CCCN4C(C)C)cnc3C)c2s1` [Example 323, (S)—N-(5-(2-(1-isopropylpyrrolidin-2-yl)acetamido)-2-methylpyridin-3-yl)-2-(2-methoxypyridin-3-yl)pyrazolo[5,1-b]thiazole-7-carboxamide] are 0.2 nM and 2.8 nM.
In the case of `CC[C@H]1CN(CC(=O)Nc2cnc(C)c(NC(=O)c3cnn4cc(-c5cccnc5OC)sc34)c2)CCO1` [Example 311, (S)—N-(5-(2-(2-ethylmorpholino)acetamido)-2-methylpyridin-3-yl)-2-(2-methoxypyridin-3-yl)pyrazolo[5,1-b]thiazole-7-carboxamide], the values for the IC50 in experiment [1] and in experiment [2] (read-out: PDGFR Cellular IC50) were 0.2 nM and 2.4 nM, respectively.
In the case of `Cc1ncc(NC(=O)CN2CC(C)(C)C2)cc1NC(=O)c1cnn2cc(-c3cnc4[nH]ncc4c3)sc12` [Example 288, N-(5-(2-(3,3-dimethylazetidin-1-yl)acetamido)-2-methylpyridin-3-yl)-2-(1H-pyrazolo[3,4-b]pyridin-5-yl)pyrazolo[5,1-b]thiazole-7-carboxamide], the IC50 in experiment [1] was 0.4 nM; in experiment [2] (read-out: PDGFR Cellular IC50), 13.5 nM.
On the same counts, the results for `Cc1ncc(NC(=O)CN2CC(C)(C)C2)cc1NC(=O)c1cnn2cc(-c3cnn(CC(N)=O)c3)sc12` [Example 267, 2-(1-(2-amino-2-oxoethyl)-1H-pyrazol-4-yl)-N-(5-(2-(3,3-dimethylazetidin-1-yl)acetamido)-2-methylpyridin-3-yl)pyrazolo[5,1-b]thiazole-7-carboxamide] are 0.9 nM and 701 nM.
On the same counts, the results for `CC(=O)Nc1cc(-c2cn3ncc(C(=O)Nc4cc(NC(=O)CN5CC(C)(C)C5)cnc4C)c3s2)ccn1` [Example 273, 2-(2-acetamidopyridin-4-yl)-N-(5-(2-(3,3-dimethylazetidin-1-yl)acetamido)-2-methylpyridin-3-yl)pyrazolo[5,1-b]thiazole-7-carboxamide] are 0.2 nM and 13.7 nM.
The corresponding values for `Cc1ncc(NC(=O)C(C)N2CCCCCC2)cc1NC(=O)c1cnn2cc(-c3cnn(C)c3)sc12` (stereo not shown) [Example 306, N-(5-(2-(azepan-1-yl)propanamido)-2-methylpyridin-3-yl)-2-(1-methyl-1H-pyrazol-4-yl)pyrazolo[5,1-b]thiazole-7-carboxamide] are 0.5 nM and 4.8 nM.
For `Cc1ncc(NC(=O)CN2CC(C)(C)C2)cc1NC(=O)c1cnn2cc(-c3cnn(C(F)(F)F)c3)sc12` [Example 269, N-(5-(2-(3,3-dimethylazetidin-1-yl)acetamido)-2-methylpyridin-3-yl)-2-(1-(trifluoromethyl)-1H-pyrazol-4-yl)pyrazolo[5,1-b]thiazole-7-carboxamide], the IC50 in experiment [1] was 1.8 nM; in experiment [2] (read-out: PDGFR Cellular IC50), 17.5 nM.
`Cc1ncc(NC(=O)CN2CC(C)(C)C2)cc1NC(=O)c1cnn2cc(-c3cnn(C)c3)sc12` [Example 22, N-(5-(2-(3,3-dimethylazetidin-1-yl)acetamido)-2-methylpyridin-3-yl)-2-(1-methyl-1H-pyrazol-4-yl)pyrazolo[5,1-b]thiazole-7-carboxamide]: the IC50 in experiment [1] was 0.7 nM; in experiment [2] (read-out: PDGFR Cellular IC50), 5.3 nM.
Consider `Cc1ncc(NC(=O)CN2CC(C)(C)C2)cc1NC(=O)c1cnn2cc(-c3ccn(S(C)(=O)=O)c3)sc12` [Example 275, N-(5-(2-(3,3-dimethylazetidin-1-yl)acetamido)-2-methylpyridin-3-yl)-2-(1-(methylsulfonyl)-1H-pyrrol-3-yl)pyrazolo[5,1-b]thiazole-7-carboxamide], for which the IC50 in experiment [1] was determined as 0.2 nM; in experiment [2] (PDGFR Cellular IC50), 7.6 nM.
In the case of `Cc1ncc(NC(=O)CN2CC(C)(C)C2)cc1NC(=O)c1cnn2cc(-c3cnn(CC(F)(F)F)c3)sc12` [Example 268, N-(5-(2-(3,3-dimethylazetidin-1-yl)acetamido)-2-methylpyridin-3-yl)-2-(1-(2,2,2-trifluoroethyl)-1H-pyrazol-4-yl)pyrazolo[5,1-b]thiazole-7-carboxamide], the values for the IC50 in experiment [1] and in experiment [2] (read-out: PDGFR Cellular IC50) were 0.6 nM and 11.6 nM, respectively.

Usually IC50 stands for the point on the concentration scale where inhibition reaches its midpoint.
